Patent US7514408B1, “β-secretase enzyme compositions and methods” (Elan Pharmaceuticals, Inc., priority 1999, dated 2009)
Numbered stars: 1 amine (or outer) side, 2 acyl side, 3 side chain; on linkers, the order of the positions; unused ones are H or OH. Square brackets hold non-standard residues; d marks the D form. Peptide text beside a SMILES is read from it. Sta = CC(C)C[C@H](N)[C@@H](O)CC(=O)O; X1 = CC(C)CC(N[*:1])C(O)C(=O)[*:2]

Biological target: β-secretase (Homo sapiens, UniProt P56817)
Assay: MBP C125 assay of peptide inhibitors
Assay type: biochemical
Protocol: The substrates for these studies were synthesized using solid support sequential synthesis as described in Example 7. Assays of the inhibitory activity were performed in the MBP C125 assays described in Example 4 and IC50 values were generated for the heptameric inhibitors are reported in Table 9. Preferred inhibitors of the invention are those compounds in Group III, particularly preferred inhibitors are in Group II and the most preferred are the inhibitors of Group I.
MBP-C125 Assay: Two recombinantly-expressed proteins (FIG. 19 and FIG. 20) were used as substrates for β-secretase. The preferred substrate (FIG. 19) was expressed in E. coli as a fusion protein of the last 125 amino acids of APP fused to the carboxy-terminal end of maltose-binding protein (MBP), using commercially available vectors from New England Biolabs. […]
Recombinant proteins were generated with both the wild-type APP sequence (MBP-C125 WT) at the cleavage site ( . . . Val-Lys-Met-Asp-Ala . . . ). […] This amino-terminal fragment can be recognized on Western blots with the same Ab, or, quantitatively, using an anti-MBP capture-biotinylated SW-192 reporter sandwich format, as shown in FIG. 19. […]
Microtiter 96-well plates were coated with purified anti-MBP antibody (@ 5-μg/ml), followed by blocking with human serum albumin. […] Plates were read in a Cytofluor 2350 Fluorescent Measurement System. […]

β-secretase, sequence (P56817 46-501): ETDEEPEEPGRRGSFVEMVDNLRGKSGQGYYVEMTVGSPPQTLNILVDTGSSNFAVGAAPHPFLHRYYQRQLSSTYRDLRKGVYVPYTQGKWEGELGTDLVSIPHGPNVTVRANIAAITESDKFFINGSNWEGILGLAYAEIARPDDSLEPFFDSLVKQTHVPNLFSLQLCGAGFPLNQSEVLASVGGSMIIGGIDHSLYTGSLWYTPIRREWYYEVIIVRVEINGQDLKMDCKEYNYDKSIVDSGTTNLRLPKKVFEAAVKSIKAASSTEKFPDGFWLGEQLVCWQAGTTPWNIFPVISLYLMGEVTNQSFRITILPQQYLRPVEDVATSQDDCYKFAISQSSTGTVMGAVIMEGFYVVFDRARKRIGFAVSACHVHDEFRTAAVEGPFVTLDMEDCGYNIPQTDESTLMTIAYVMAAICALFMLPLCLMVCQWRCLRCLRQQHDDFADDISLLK

IC50 (MBP C125 assay, heptamer peptides, read-out: IC50 Group)	inhibitor potency relative to the valine substitution alone (fold more potent than P1' valine substituted peptide)	Molecule
1 to 10 µM	–	CSCC[C@H](NC(=O)[C@@H](NC(C)=O)C(C)C)C(=O)NC(CC(C)C)C(O)C(=O)N[C@H](C(=O)N[C@@H](C)C(=O)N[C@@H](CCC(=O)O)C(=O)N[C@@H](Cc1ccccc1)C(=O)O)C(C)C (some centres unmarked) [Example 7P] (Ac-VM[X1]VAEF-OH)
–	about 100 times	NH2-KTEEISEVNVAEF-COOH (H-KTEEISEVN[Sta]VAEF-OH) [P10-P4′sta D→V]
